The values below come from publication PMC8748916, “Microbial enzymes induce colitis by reactivating triclosan in the mouse gastrointestinal tract” (Nature Communications, 2022).

Values joined by “and” are separate entries in the source; they are usually repeats but may differ in a detail not shown here. Equal values may be shown once. Read-outs that look alike come from different tables or passages of the source.

For orientation: IC50 means the concentration at which inhibition is half-maximal. In general, inhibition refers to the change of the read-out against control, counted positive when it falls. The low end stands for little suppression, the high end for strong suppression.

In one data set the test system is human fecal bacteria. Description: Conversion of TCS-G to TCS by anaerobically cultured human fecal bacteria in vitro. It is filed as in vitro ADME. To be noted: from TCS-G, replicates.
Data set [1] concerns gut microbial β-glucuronidase (GUS) enzymes. Description: Catalytic efficiency assay (HPLC) of TCS-G to TCS conversion by purified GUS enzymes. It is filed as biochemical.
A further data set concerns the target T1, R. hominis 3 GUS (Roseburia hominis, UniProt A0A395V874).
T1 sequence (A0A395V874 1-734): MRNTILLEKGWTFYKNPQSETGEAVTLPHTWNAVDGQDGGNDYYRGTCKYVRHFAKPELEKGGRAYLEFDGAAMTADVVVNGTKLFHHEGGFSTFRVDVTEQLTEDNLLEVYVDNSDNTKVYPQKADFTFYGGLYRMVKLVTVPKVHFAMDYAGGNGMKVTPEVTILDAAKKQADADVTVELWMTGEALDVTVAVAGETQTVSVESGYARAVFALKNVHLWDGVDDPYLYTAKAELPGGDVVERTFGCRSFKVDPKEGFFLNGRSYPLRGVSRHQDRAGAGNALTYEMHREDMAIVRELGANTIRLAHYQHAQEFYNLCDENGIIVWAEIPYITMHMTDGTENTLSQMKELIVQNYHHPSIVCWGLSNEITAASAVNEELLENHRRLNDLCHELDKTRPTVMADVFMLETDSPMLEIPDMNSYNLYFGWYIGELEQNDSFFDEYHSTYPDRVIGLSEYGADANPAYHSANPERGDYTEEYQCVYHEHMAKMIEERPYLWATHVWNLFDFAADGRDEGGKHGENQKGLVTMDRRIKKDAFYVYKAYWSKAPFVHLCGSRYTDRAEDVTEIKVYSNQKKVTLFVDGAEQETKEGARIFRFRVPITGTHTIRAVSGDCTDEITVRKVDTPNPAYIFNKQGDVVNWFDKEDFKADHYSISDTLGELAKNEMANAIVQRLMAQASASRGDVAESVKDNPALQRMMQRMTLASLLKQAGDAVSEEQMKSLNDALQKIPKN
Nature of the data set: In vitro IC50 assay (TCS-G to TCS conversion, HPLC). The data set is classed as biochemical. The method, then:
(§1) Reaction mixtures containing 10 µL GUS (10 nM final), 10 µL TCS-G (200 µM final), 5 µL inhibitor (various concentrations), and 25 µL buffer (50 mM HEPES, 50 mM NaCl, various pH) or (50 mM sodium acetate, 50 mM NaCl, various pH) were incubated for 10 min and quenched with 50 µL 25% trichloroacetic acid. Samples were centrifuged 10 min at 16,000 × g, and the supernatant was analyzed using the method described for the catalytic efficiency assay. Inhibition was calculated by the equation below:1 %inhibition=100×(1−(AUCinh−AUCmax)/(AUCmin−AUCmax)) where AUCmin is the signal of the uninhibited reaction, AUCmax is the signal of the 100% inhibited reaction, and AUCinh is the signal of the reaction at a given concentration of inhibitor. Percent inhibition values were plotted against the log of inhibitor concentration, and GraphPad Prism 8.0 was used to determine IC50 values.

The test system of a further data set is Clostridiales sp. GUS. The description is as above. It is filed as biochemical. The settings on record: for Clostridiales sp. GUS % inhibition: Fig. 4c, triplicate. The method, then: as §1
The target of another data set is E. eligens GUS (Lachnospira eligens, UniProt C4Z6Z2). Described as above. The data set is classed as biochemical. The method, then:
as §1

The test system of another data set is E. coli. More on the design: method as in PMID 30062115. To be noted: cited from earlier work.
For the next data set, the system named is Caco2 cells. Description: Cell proliferation assay (MTT). It is filed as cell-based, human. The method, then: (§2) Mouse (MC38) or human (Caco2 and HCT-116) intestinal cells were grown in DMEM medium fortified with 10% FBS (EMD Millipore Corporation). The cells were seeded in 96-well plates, then treated with GUSi or vehicle (0.2% v/v DMSO) for 24 h. Cell viability was determined using an MTT assay.
(§3) Fig. S14. GUSi treatment has little effect on the proliferation of mouse or human intestinal cells in vitro.
(§4) Mouse (MC38) or human (Caco2 and HCT-116) intestinal cells were treated with GUSi or vehicle (0.2% v/v
(§5) DMSO) for 24 h, then cell viability was analyzed using a MTT assay. The data are mean ± SEM, n = 5-6 per

In the next data set the test system is HCT-116 cells. Description: Cell proliferation assay (MTT). It is filed as cell-based, human. The method, then:
as §2, §3, §4, §5

The next data set concerns the target R. gnavus 3 GUS (Mediterraneibacter gnavus, UniProt Z9UC37PQH0). Description: In vitro IC50 assay (TCS-G to TCS conversion, HPLC). It is filed as biochemical.
For a further data set, the system named is mammalian GUS enzyme. More on the design: method as in PMID 30062115. The settings on record: cited from earlier work.
For data set [2], the target named is Eubacterium sp. CAG: 76 GUS (Eubacterium sp. CAG:76, UniProt Z9TO06ZFY0). Description: In vitro IC50 assay (TCS-G to TCS conversion, HPLC). To be noted: Fig. 4c, triplicate. It is filed as biochemical.
Where [3] appears, read: GUSi 3.7037 uM, Fig. 4c, triplicate.
Where [4] appears, read: GUSi 33.3333 uM, Fig. 4c, triplicate.
Where [5] appears, read: GUSi 100 uM, Fig. 4c, triplicate.
The mark [6] stands for this setting: conversion of TCS-G (200 µM) to TCS, FMN-binding GUS.
[7] abbreviates: GUSi 3.7037 uM, Fig. 4b, triplicate.
[8] abbreviates: GUSi 11.1111 uM, Fig. 4b, triplicate.
Where [9] appears, read: GUSi 33.3333 uM, Fig. 4b, triplicate.
[10] abbreviates: GUSi 100 uM, Fig. 4b, triplicate.
[11] abbreviates: 24-h treatment, concentration up to 10 µM.
Where [12] appears, read: GUSi 1.23457 uM, Fig. 4c, triplicate.
[13] abbreviates: GUSi 11.1111 uM, Fig. 4c, triplicate.

In the case of `Oc1cc(Cl)ccc1Oc1ccc(Cl)cc1Cl` [TCS, Triclosan], in the data set on human fecal bacteria, the “TCS formed” value is 10.13 pmol and 12.20 pmol and 15.57 pmol.

`O=C(O)C1OC(Oc2cc(Cl)ccc2Oc2ccc(Cl)cc2Cl)C(O)C(O)C1O` (stereo not drawn) [TCS-G, triclosan-glucuronide]: the Catalytic efficiency in [1] was 221350 M⁻¹ s⁻¹ and 261200 M⁻¹ s⁻¹ and 185500 M⁻¹ s⁻¹; in data set [1] (Enzyme: B. uniformis 2, Fig. 3b, replicates 1-3) it was 26480 M⁻¹ s⁻¹ and 25620 M⁻¹ s⁻¹ and 34030 M⁻¹ s⁻¹; in data set [1] (Enzyme: Clostridiales sp., Fig. 3b, replicates 1-3), 421200 M⁻¹ s⁻¹ and 564000 M⁻¹ s⁻¹ and 643571 M⁻¹ s⁻¹; in data set [1] (Enzyme: E. coli, Fig. 3b, replicates 1-3) it was 25610 M⁻¹ s⁻¹ and 27630 M⁻¹ s⁻¹ and 30620 M⁻¹ s⁻¹; in data set [1] (Enzyme: E. eligens, Fig. 3b, replicates 1-3), 789000 M⁻¹ s⁻¹ and 987900 M⁻¹ s⁻¹ and 767700 M⁻¹ s⁻¹; in [1] (Enzyme: Eubacterium sp. CAG: 76, Fig. 3b, replicates 1-3), 294800 M⁻¹ s⁻¹ and 499700 M⁻¹ s⁻¹ and 451000 M⁻¹ s⁻¹. Also, the Catalytic efficiency in [1] (Enzyme: F. prausnitzii 2-L1, Fig. 3b, replicates 1-3) was 876200 M⁻¹ s⁻¹ and 975000 M⁻¹ s⁻¹ and 757000 M⁻¹ s⁻¹; in [1] (Enzyme: F. prausnitzii, Fig. 3b, replicates 1-3), 373850 M⁻¹ s⁻¹ and 362000 M⁻¹ s⁻¹ and 260800 M⁻¹ s⁻¹; in data set [1] (Enzyme: R. gnavus 3, Fig. 3b, replicates 1-3), 816300 M⁻¹ s⁻¹ and 891300 M⁻¹ s⁻¹ and 748300 M⁻¹ s⁻¹; in [1] (Enzyme: R. hominis 2, Fig. 3b, replicates 1-3), 168600 M⁻¹ s⁻¹ and 249500 M⁻¹ s⁻¹ and 277800 M⁻¹ s⁻¹; in [1] (Enzyme: R. hominis 3, Fig. 3b, replicates 1-3) it was 801500 M⁻¹ s⁻¹ and 763200 M⁻¹ s⁻¹ and 1075600 M⁻¹ s⁻¹; in data set [1] (Enzyme: R. inulinvorans, Fig. 3b, replicates 1-3) it was 450800 M⁻¹ s⁻¹ and 617200 M⁻¹ s⁻¹ and 689000 M⁻¹ s⁻¹.

Turning to `C1CCc2c(c(N3CCOCC3)nc3sc4c(N5CCNCC5)nnnc4c23)C1` [GUSi, UNC10201652], the IC50 is > 100 µM at R. hominis 3 GUS, 4 ± 1 µM with Clostridiales sp. GUS (setting [6]), 3.1 ± 0.1 µM at E. eligens GUS and 3.7 ± 0.5 µM on R. gnavus 3 GUS (setting [6]). For the same compound, the “R. hominis 3 GUS % inhibition” value on R. hominis 3 GUS (setting [3]) was 2.389% and -2.0752% and 4.091%; at R. hominis 3 GUS (setting [4]), 18.9209% and 35.4136%; at R. hominis 3 GUS (setting [5]) it was 34.5947% and 39.5508% and 57.3604%. The inhibition at 33.3333 µM is 23.2% on R. hominis 3 GUS (setting [4]), 97.2% on E. eligens GUS (setting [9]), 79.3% at R. gnavus 3 GUS (setting [4]) and 73.6% in data set [2] (GUSi 33.3333 uM). Further, the “Clostridiales sp. GUS % inhibition” value in the data set with Clostridiales sp. GUS (GUSi 11.1111 uM) is 28.4771% and 43.1829% and 36.9382%; with Clostridiales sp. GUS (GUSi 33.3333 uM), 61.452% and 67.3548% and 67.8202%; in the data set with Clostridiales sp. GUS (GUSi 100 uM), 79.8338% and 82.8373% and 85.2439%. Also, 0.0457247 µM produced 0% inhibition at E. eligens GUS (GUSi 0.0457247 uM, Fig. 4b, triplicate). The inhibition at 0.137174 µM against E. eligens GUS (GUSi 0.137174 uM, Fig. 4b, triplicate) was 0%. The same compound returned an inhibition at 0.411523 µM against E. eligens GUS (GUSi 0.411523 uM, Fig. 4b, triplicate) of 0%. Further, the “E. eligens GUS % inhibition” value on E. eligens GUS (GUSi 1.23457 uM, Fig. 4b, triplicate) was 2.145% and 1.672%; on E. eligens GUS (setting [7]), 67.2992% and 67.384%; on E. eligens GUS (setting [8]), 95.2204% and 97.0627%; on E. eligens GUS (setting [9]) it was 103.909% and 106.718%; on E. eligens GUS (setting [10]), 105.208% and 106.762%. The inhibition at 3.7037 µM against E. eligens GUS (setting [7]) is 64.7%; against R. gnavus 3 GUS (setting [3]) it was 46.7%. In addition, the values for the inhibition at 11.1111 µM (at E. eligens GUS (setting [8]); against R. gnavus 3 GUS (setting [13]); in data set [2] (GUSi 11.1111 uM)) were 90%, 64.9% and 57.2%, respectively. Moreover, the inhibition at 100 µM against E. eligens GUS (setting [10]) amounted to 97.5%; against R. gnavus 3 GUS (setting [5]), 89.5%; in data set [2] (GUSi 100 uM) it was 84.1%. For the same compound, in the data set on E. coli, the “effect on growth of E. coli” value is reported as “no effect”. For the same compound, the “effect on cell growth (MTT)” value in the data set with Caco2 cells (setting [11]) and in the data set with HCT-116 cells (setting [11]) was “little effect” throughout. Further, the “Cell proliferation (Fig. S14)” value was 98.3792 and 85.2575 and 104.44 and 99.0453 and 92.8508 and 100.244 in the data set on Caco2 cells (Caco2, concentration 1, replicates); 86.1234 and 96.6474 and 97.7798 and 94.9156 and 100.844 with Caco2 cells (Caco2, concentration 2, replicates); 95.1821 and 92.3845 and 92.5844 and 91.9849 and 82.46 and 86.0568 in the data set on Caco2 cells (Caco2, concentration 5, replicates); 85.1243 and 87.6554 and 72.6021 and 79.7957 and 82.3268 and 62.0782 with Caco2 cells (Caco2, concentration 10, replicates); 91.3142 and 95.487 and 92.4485 and 104.886 and 100.024 in the data set with HCT-116 cells (HCT 116, concentration 1, replicates); 98.4038 and 88.5189 and 93.2993 and 86.1692 and 98.1202 and 99.3761 in the data set with HCT-116 cells (HCT 116, concentration 2, replicates). Besides, the “Cell proliferation (Fig. S14)” value in the data set with HCT-116 cells (HCT 116, concentration 5, replicates) was 113.11 and 102.536 and 95.2844 and 92.408 and 101.807 and 114.082; in the data set on HCT-116 cells (HCT 116, concentration 10, replicates) it was 87.263 and 108.329 and 83.941 and 79.8088 and 79.1606 and 114.487. Moreover, the “R. gnavus 3 GUS % inhibition” value on R. gnavus 3 GUS (GUSi 0.0457247 uM, Fig. 4c, triplicate) was -1.753% and -3.75% and 4.591%; at R. gnavus 3 GUS (GUSi 0.137174 uM, Fig. 4c, triplicate) it was 0.1348% and -1.9775% and 2.5447%; on R. gnavus 3 GUS (setting [12]) it was 15.6836% and 27.3384%; at R. gnavus 3 GUS (setting [3]), 45.7722% and 58.3391%; on R. gnavus 3 GUS (setting [13]) it was 62.2571% and 74.9484%; on R. gnavus 3 GUS (setting [4]), 76.969% and 90.9388%. The “R. gnavus 3 GUS % inhibition” value on R. gnavus 3 GUS (setting [5]) is 87.2656% and 101.29%. In addition, at R. gnavus 3 GUS (setting [12]), testing at 1.23457 µM gave an inhibition of 17.8%. Further, the “effect on the activity of mammalian GUS enzyme” value with mammalian GUS enzyme is recorded as “no effect”.
